In series [1] the target is T1, C-X-C chemokine receptor type 3 (Homo sapiens, UniProt P49682).
T1 sequence (P49682 whole entry): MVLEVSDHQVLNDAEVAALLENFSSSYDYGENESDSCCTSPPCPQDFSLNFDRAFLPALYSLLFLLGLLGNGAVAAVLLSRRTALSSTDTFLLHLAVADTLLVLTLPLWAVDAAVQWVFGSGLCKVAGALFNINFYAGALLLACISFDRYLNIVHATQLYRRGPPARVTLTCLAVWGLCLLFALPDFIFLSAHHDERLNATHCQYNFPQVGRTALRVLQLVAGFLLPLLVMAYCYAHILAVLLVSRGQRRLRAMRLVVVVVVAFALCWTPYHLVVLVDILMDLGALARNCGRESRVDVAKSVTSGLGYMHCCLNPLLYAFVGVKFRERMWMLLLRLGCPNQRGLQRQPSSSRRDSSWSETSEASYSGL
Description: Antagonist activity at recombinant human CXCR3 expressed in human CHO-K1 cells co-expressing Galpha15 incubated for 10 mins by Fluo-4AM dye based FLIPR assay

The target of series [2] is Voltage-gated inwardly rectifying potassium channel KCNH2 (Homo sapiens, UniProt Q12809). The experiment in a line: Inhibition of hERG expressed in CHO cells by Q patch-clamp method.
The target of series [3] is T1, C-X-C chemokine receptor type 3. The source holds these as a separate data set.
Description: Antagonist activity at recombinant human CXCR3 in human U2SO cells assessed as reduction in CXCL10-induced beta-arrestin recruitment by TANGO assay
For series [4] the target is unchanged. The source holds these as a separate data set.
Description: Inhibition of CXCR3 receptor internalization in human venous whole blood incubated for 30 mins by flow cytometer analysis
The nature of series [5]: in vitro. The note with it: human.
Series [6] has as its target hERG (Homo sapiens, UniProt Q12809). As to the kind of experiment: Inhibition of hERG expressed in CHO cells 10 uM at by Q patch-clamp method relative to control.
For series [7] the following is noted: human, microsomes, 1 µM.
Series [8] is described as follows: Lipophilicity, log D of the compound at pH 7.4. The conditions noted are these: buffer.

Sequence of Voltage-gated inwardly rectifying potassium channel KCNH2 (Q12809 whole entry): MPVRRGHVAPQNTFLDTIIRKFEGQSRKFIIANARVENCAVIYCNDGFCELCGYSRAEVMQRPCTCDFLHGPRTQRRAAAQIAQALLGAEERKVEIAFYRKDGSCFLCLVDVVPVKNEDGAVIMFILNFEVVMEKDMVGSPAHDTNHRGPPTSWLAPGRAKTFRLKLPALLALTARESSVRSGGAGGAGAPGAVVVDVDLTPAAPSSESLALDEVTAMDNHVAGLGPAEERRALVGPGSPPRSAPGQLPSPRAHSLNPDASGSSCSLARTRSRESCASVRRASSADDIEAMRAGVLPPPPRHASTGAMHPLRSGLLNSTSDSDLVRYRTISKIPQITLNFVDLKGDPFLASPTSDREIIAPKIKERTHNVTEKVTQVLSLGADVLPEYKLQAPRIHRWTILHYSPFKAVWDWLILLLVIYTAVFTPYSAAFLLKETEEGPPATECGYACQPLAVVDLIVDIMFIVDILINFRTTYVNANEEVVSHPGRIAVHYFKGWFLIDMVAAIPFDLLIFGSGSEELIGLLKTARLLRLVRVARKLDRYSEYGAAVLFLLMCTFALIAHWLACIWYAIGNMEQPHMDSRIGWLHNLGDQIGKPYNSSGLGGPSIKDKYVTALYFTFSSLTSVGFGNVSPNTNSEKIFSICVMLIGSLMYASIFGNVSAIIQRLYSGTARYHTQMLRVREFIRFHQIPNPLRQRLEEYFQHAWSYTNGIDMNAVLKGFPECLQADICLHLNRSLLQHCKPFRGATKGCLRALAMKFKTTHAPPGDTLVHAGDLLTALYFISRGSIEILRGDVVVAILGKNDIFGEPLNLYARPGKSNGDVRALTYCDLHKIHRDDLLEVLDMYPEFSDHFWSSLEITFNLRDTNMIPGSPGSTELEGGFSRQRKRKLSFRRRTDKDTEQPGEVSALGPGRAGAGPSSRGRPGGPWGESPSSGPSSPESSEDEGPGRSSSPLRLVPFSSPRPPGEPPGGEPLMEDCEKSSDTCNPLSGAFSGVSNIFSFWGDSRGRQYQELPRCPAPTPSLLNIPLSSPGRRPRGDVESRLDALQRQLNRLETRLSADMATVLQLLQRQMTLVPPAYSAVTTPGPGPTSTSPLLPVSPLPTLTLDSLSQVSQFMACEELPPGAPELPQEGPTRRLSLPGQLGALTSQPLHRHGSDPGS
Sequence of hERG (Q12809 whole entry): as above

In the case of `C[C@H]1CN(c2scnc2-c2nc3ccccc3[nH]2)CCN1C(=O)Cn1cnc2cccnc21`, the IC50 in series [1] turned out to be 67 nM; in series [2] it was 630 nM; in series [3], 8030 nM.
As for `CCCc1ncc(-c2nc(C(F)(F)F)sc2N2CCN(C(=O)Cn3nc(C)nc3C)[C@H](C)C2)cn1`, the concentration for half-maximal inhibition (IC50) in series [4] is 367 nM; in series [1] it was 4.4 nM; in series [2], above 20000 nM; in series [3], 258 nM. For the same compound, the microsomal CLint at 1 µM in series [5] (microsomes) is 80 µL/min/mg.
As to `CCc1ncc(-c2nc(C(F)(F)F)sc2N2CCN(C(=O)Cn3nc(C)nc3C)[C@H](C)C2)cn1`, in series [2], the IC50 is above 20000 nM.
In the case of `O=C(Cn1cnc2cccnc21)N1CCN(c2ncsc2-c2nc3ccccc3[nH]2)CC1`, the IC50 in series [1] came to 4200 nM.
In series [2], `CCOc1ncc(-c2nc(C(F)(F)F)sc2N2CCN(C(=O)Cn3cnc4ccccc43)[C@H](C)C2)cn1` displayed an IC50 of 4700 nM.
For the compound `COCCOc1ncc(-c2nc(C(F)(F)F)sc2N2CCN(C(=O)Cn3cnc4cccnc43)[C@H](C)C2)cn1`, in series [2], the IC50 was above 20000 nM. In addition, the inhibition at 10 µM in series [6] is 17%.
In the case of `C[C@@H]1CN(c2sc(C(F)(F)F)nc2-c2cnc(OCCN(C)C)nc2)CCN1C(=O)Cn1cnc2cccnc21`, in series [7], the CLH was determined as 1.74 mL/h/kg. Moreover, the IC50 was 381 nM in series [4], 6.7 nM in series [1], above 20000 nM in series [2] and 140 nM in series [3]. The same compound came in with an inhibition at 10 µM in series [6] of 25%.
For the compound `CCOc1ncc(-c2nc(C(F)(F)F)sc2N2CCN(C(=O)Cn3cc(Cl)cn3)[C@H](C)C2)cn1`, half-maximal inhibition in series [2] (IC50) was put at 2800 nM.
In the case of `CCOc1ncc(-c2nc(C(F)(F)F)sc2N2CCN(C(=O)Cn3nccc3C)[C@H](C)C2)cn1`, the IC50 in series [4] turned out to be 289 nM; in series [1], 2 nM; in series [2], 5600 nM; in series [3] it was 162 nM. For the same compound, the intrinsic clearance (microsomal CLint) at 1 µM in series [5] (microsomes) came to 65 µL/min/mg.
As to `Cc1nc(C)n(CC(=O)N2CCN(c3sc(C(F)(F)F)nc3-c3cnc(C(C)(C)C)nc3)C[C@H]2C)n1`, in series [2], the IC50 is above 20000 nM.
With `CCOc1ccc(-c2nc(C(F)(F)F)sc2N2CCN(C(=O)Cn3nc(C)nc3C)[C@H](C)C2)cn1`, the IC50 in series [4] is 887 nM; in series [1], 8.8 nM; in series [2], above 20000 nM; in series [3], 505 nM. In series [5] (microsomes), the microsomal CLint at 1 µM worked out at 66 µL/min/mg.
On to `CCOc1ncc(-c2nc(C(F)(F)F)sc2N2CCN(C(=O)CN3C(=O)Cc4ccccc43)[C@H](C)C2)cn1`, for which, in series [2], the midpoint of inhibition, the IC50, lay at 3000 nM.
`O=C(Nc1cccnc1N1CCN(C(=O)Cn2cnc3cccnc32)CC1)c1cccc(Cl)c1` had an IC50 in series [1] of 4.2 nM.
As to `Cc1ncc(-c2nc(C(F)(F)F)sc2N2CCN(C(=O)Cn3nc(C)nc3C)[C@H](C)C2)cn1`, the IC50 in series [2] was above 20000 nM.
Consider `Cc1nc(C)n(CC(=O)N2CCN(c3sc(C(F)(F)F)nc3-c3cnc(N4CCCC4)nc3)C[C@H]2C)n1`, for which the IC50 is 352 nM in series [4], 3.5 nM in series [1], above 20000 nM in series [2] and 523 nM in series [3].
As to `C[C@@H]1CN(c2sc(CN(C)C)nc2-c2nc3ccccc3[nH]2)CCN1C(=O)Cn1cnc2cccnc21`, the IC50 in series [4] is 1150 nM; in series [1], 50 nM; in series [2] it was 20000 nM; in series [3], 2360 nM. For the same compound, the microsomal CLint at 1 µM in series [5] (microsomes) was found to be 44 µL/min/mg. Moreover, in series [6], the inhibition at 10 µM stood at 28%.
In the case of `O=C(Cn1cnc2cccnc21)N1CCN(c2scnc2-c2nc3ccccc3[nH]2)CC1`, the values for the IC50 in series [4] and in series [1] were 1440 nM and 30 nM, respectively.
With `Cc1nc(C)n(CC(=O)N2CCN(c3sc(C(F)(F)F)nc3-c3ccc(C(F)(F)F)nc3)C[C@H]2C)n1`, the IC50 in series [4] turned out to be 860 nM; in series [1], 4.2 nM; in series [2] it was 5200 nM; in series [3], 608 nM. Besides, in series [5] (microsomes), the microsomal CLint at 1 µM is below 10 µL/min/mg.
On to `COc1ncc(-c2nc(C(F)(F)F)sc2N2CCN(C(=O)Cn3cnc4cccnc43)[C@H](C)C2)cn1`, for which the CLH in series [7] stood at 0.84 mL/h/kg. The IC50 was 158 nM in series [4], 3.8 nM in series [1], above 20000 nM in series [2] and 177 nM in series [3]. The same compound displayed an inhibition at 10 µM in series [6] of 19%.
Regarding `Cc1ncc(-c2nc(C(F)(F)F)sc2N2CCN(C(=O)Cn3cnc4cccnc43)[C@H](C)C2)cn1`, 15000 nM corresponded to half-maximal inhibition in series [2] (IC50). Also, at 10 µM the inhibition in series [6] was 40%.
In series [2], `COc1ccc(-c2nc(C(F)(F)F)sc2N2CCN(C(=O)Cn3nc(C)nc3C)[C@H](C)C2)cn1` yielded a 50% inhibitory concentration (IC50) above 20000 nM.
The compound `COc1ccc(-c2nc(C(F)(F)F)sc2N2CCN(C(=O)Cn3cnc4cccnc43)[C@H](C)C2)cc1` registered an IC50 in series [2] of 8800 nM. In series [6], this compound had an inhibition at 10 µM of 53%.
`CCOc1ncc(-c2nc(C(F)(F)F)sc2N2CCN(C(=O)Cn3nc(C)cc3C)[C@H](C)C2)cn1`: the IC50 in series [4] was determined as 60 nM; in series [1] it was 2.3 nM; in series [2] it was 13000 nM; in series [3], 87 nM. Further, the log distribution coefficient (logD) in series [8] amounted to 3.7. In series [5] (microsomes), this compound gave a microsomal CLint at 1 µM of 184 µL/min/mg.
For `Cc1nc(-c2nc3ccccc3[nH]2)c(N2CCN(C(=O)Cn3cnc4cccnc43)[C@H](C)C2)s1`, the 50% inhibitory concentration (IC50) worked out at 1060 nM in series [4], 9 nM in series [1], 2600 nM in series [2] and 1050 nM in series [3]. Moreover, the microsomal CLint at 1 µM in series [5] (microsomes) turned out to be 23 µL/min/mg.
In the same order, the values of `Cc1nc(C)n(CC(=O)N2CCN(c3sc(C(F)(F)F)nc3-c3cnc(C4CC4)nc3)C[C@H]2C)n1` are 674 nM, 3.5 nM, 13000 nM, 349 nM and below 10 µL/min/mg.
As to `CCOc1ncc(-c2nc(C(F)(F)F)sc2N2CCN(C(=O)Cn3ccc4cnccc43)[C@H](C)C2)cn1`, half-maximal inhibition in series [2] (IC50) was put at 570 nM.
The same measure, in the same setting: the result for `CCOc1ncc(-c2nc(C(F)(F)F)sc2N2CCN(C(=O)Cn3ccc4cccnc43)[C@H](C)C2)cn1` reads 4200 nM.
Turning to `CC[C@@H]1CN(c2scnc2-c2nc3ccccc3[nH]2)CCN1C(=O)Cn1cnc2cccnc21`, the half-maximal inhibitory concentration (IC50) amounted to 3.9 nM in series [1], 750 nM in series [2] and 604 nM in series [3].
Regarding `O=C(Cn1cnc2cccnc21)N1CCN(c2ccccc2-c2nc3ccccc3[nH]2)CC1`, the IC50 turned out to be 230 nM in series [4] and 4.3 nM in series [1].
For the compound `CCCc1ncc(-c2nc(C(F)(F)F)sc2N2CCN(C(=O)Cn3cnc4cccnc43)[C@H](C)C2)cn1`, half-maximal inhibition in series [2] (IC50) required 5900 nM. In series [6], this compound gave an inhibition at 10 µM of 57%.
For `CCc1nc(-c2nc3ccccc3[nH]2)c(N2CCN(C(=O)Cn3cnc4cccnc43)[C@H](C)C2)s1`, the microsomal CLint at 1 µM in series [5] (liver microsomes) is 88 µL/min/mg.
In the case of `CCOc1ncc(-c2nc(C(F)(F)F)sc2N2CCN(C(=O)Cn3c(=O)oc4ccccc43)[C@H](C)C2)cn1`, the IC50 in series [4] came out at 536 nM; in series [1] it was 3.3 nM; in series [2], 2200 nM; in series [3], 99 nM.
In the same order, the values of `C[C@@H]1CN(c2sc(Br)nc2-c2nc3ccccc3[nH]2)CCN1C(=O)Cn1cnc2cccnc21` are 526 nM, 2.8 nM, 340 nM and 126 nM.
For the compound `CCOc1ncc(-c2nc(C(F)(F)F)sc2N2CCN(C(=O)Cn3ccc(C(F)(F)F)n3)[C@H](C)C2)cn1`, the IC50 in series [4] was found to be 90 nM; in series [1] it was 3.8 nM; in series [2], 5100 nM; in series [3], 93 nM. The same compound registered a microsomal CLint at 1 µM in series [5] (microsomes) of 20 µL/min/mg.
In the same order, the values of `C[C@@H]1CN(c2sc(C3COC3)nc2-c2nc3ccccc3[nH]2)CCN1C(=O)Cn1cnc2cccnc21` are 1150 nM, 53 nM, 4400 nM, 6220 nM and 38 µL/min/mg.
Consider `C[C@@H]1CN(c2sc(CO)nc2-c2nc3ccccc3[nH]2)CCN1C(=O)Cn1cnc2cccnc21`, for which the IC50 in series [4] is 3380 nM; in series [1], 171 nM; in series [2], 19000 nM; in series [3] it was above 10000 nM.
In the same order, the values of `C[C@@H]1CN(c2sc(C3CC3)nc2-c2nc3ccccc3[nH]2)CCN1C(=O)Cn1cnc2cccnc21` are 994 nM, 9.7 nM, 380 nM and 745 nM.
`CCOc1ncc(-c2nc(C(F)(F)F)sc2N2CCN(C(=O)Cn3ncc4cccnc43)[C@H](C)C2)cn1` gave an IC50 in series [2] of 15000 nM.
On to `O=C(Nc1ccccc1N1CCN(C(=O)Cn2cnc3cccnc32)CC1)c1cccc(Cl)c1`, for which 1.6 nM corresponded to half-maximal inhibition in series [1] (IC50).
Consider `Cc1nc(C)n(CC(=O)N2CCN(c3sc(C(F)(F)F)nc3-c3cnc(OC4CCC4)nc3)C[C@H]2C)n1`, for which the IC50 in series [4] is 306 nM; in series [1] it was 4 nM; in series [2], above 20000 nM; in series [3], 78 nM. The logD in series [8] came out at 3.6. In series [5] (microsomes), this compound gave a microsomal CLint at 1 µM of 51 µL/min/mg.
As for `COc1ncc(-c2nc(C(F)(F)F)sc2N2CCN(C(=O)Cn3nc(C)nc3C)[C@H](C)C2)cn1`, the IC50 in series [2] is above 20000 nM.

The values are drawn from ChEMBL document CHEMBL5126607, “Discovery and In Vivo Evaluation of ACT-660602: A Potent and Selective Antagonist of the Chemokine Receptor CXCR3 for Autoimmune Diseases” (J Med Chem, 2022).
